Experimental data reported in ChEMBL document CHEMBL5055619, “Tetrahydrofuran-Based Transient Receptor Potential Ankyrin 1 (TRPA1) Antagonists: Ligand-Based Discovery, Activity in a Rodent Asthma Model, and Mechanism-of-Action via Cryogenic Electron Microscopy” (J Med Chem, 2021).
Converted amounts (≈) assume the structure as drawn. The source made the active and inactive calls. The rule behind the calls is not given here.

Tests used:
[1] = test system: Cavia porcellus; experiment: Antiinflammatory activity against ovalbumin-induced po dosed Hartley guinea pig asthma model assessed as reduction in BAL fluid infiltrate in the airway treated 2 hrs before and 8 hrs after 28 days of ovalbumin challenge measured after 24 hrs; format: functional, organism-based
[2] = Antagonist activity at human TRPA1 expressed in CHO cells assessed as cinnamaldehyde-induced calcium flux measured after 90 mins by FLIPR assay; format: cell-based; settings: 1.5 h
[3] = molecular target: hERG (KCNH2) (Homo sapiens, UniProt Q12809); experiment: Inhibition of human ERG at 10 uM
[4] = Protein binding in rat plasma; format: ADME, cell-free; settings: read-out: PPB (converted)
[5] = molecular target: Transient receptor potential cation channel subfamily A member 1 (Rattus norvegicus) (UniProt Q6RI86); experiment: In vivo antagonist activity at TRPA1 in AITC-induced rat pain model assessed as nocifensive behaviour at 24.47 ratio of free plasma concentration to IC50 for rat […]; format: functional, organism-based; settings: concentration not given here
Transient receptor potential cation channel subfamily A member 1 (Rattus norvegicus), sequence (Q6RI86 whole entry): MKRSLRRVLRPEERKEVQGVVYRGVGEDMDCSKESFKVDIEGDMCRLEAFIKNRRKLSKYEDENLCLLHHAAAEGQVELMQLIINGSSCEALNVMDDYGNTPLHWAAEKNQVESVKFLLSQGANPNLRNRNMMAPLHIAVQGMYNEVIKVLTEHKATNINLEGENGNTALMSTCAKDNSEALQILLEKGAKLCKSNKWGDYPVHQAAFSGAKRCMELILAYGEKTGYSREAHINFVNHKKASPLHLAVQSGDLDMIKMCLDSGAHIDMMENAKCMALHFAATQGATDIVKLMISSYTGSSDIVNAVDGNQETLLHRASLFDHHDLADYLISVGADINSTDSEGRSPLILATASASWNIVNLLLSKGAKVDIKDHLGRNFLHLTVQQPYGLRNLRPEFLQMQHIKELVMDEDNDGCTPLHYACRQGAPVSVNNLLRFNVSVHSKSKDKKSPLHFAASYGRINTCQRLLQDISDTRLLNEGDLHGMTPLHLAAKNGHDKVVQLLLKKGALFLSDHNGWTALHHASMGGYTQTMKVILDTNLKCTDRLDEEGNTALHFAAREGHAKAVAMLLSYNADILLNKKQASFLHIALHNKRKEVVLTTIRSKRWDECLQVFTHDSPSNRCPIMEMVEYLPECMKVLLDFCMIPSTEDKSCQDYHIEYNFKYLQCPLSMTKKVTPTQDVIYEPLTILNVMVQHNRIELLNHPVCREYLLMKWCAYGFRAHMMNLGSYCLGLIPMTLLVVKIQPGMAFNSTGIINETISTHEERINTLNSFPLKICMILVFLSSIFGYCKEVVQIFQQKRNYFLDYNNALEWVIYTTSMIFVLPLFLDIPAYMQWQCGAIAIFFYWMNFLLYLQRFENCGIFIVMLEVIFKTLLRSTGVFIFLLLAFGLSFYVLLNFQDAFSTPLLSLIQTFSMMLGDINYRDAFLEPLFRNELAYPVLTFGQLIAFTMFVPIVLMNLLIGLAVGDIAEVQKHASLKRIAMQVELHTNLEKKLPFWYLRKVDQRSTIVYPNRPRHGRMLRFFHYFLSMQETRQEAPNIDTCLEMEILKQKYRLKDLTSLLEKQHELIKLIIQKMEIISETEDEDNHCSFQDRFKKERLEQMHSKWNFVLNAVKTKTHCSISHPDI

[6] = Clearance in rat at 1 mg/kg; format: ADME, organism-based; settings: in vivo
[7] = Antagonist activity at rat TRPA1 expressed in CHO cells assessed as cinnamaldehyde-induced calcium flux measured after 90 mins by FLIPR assay; format: cell-based; settings: 1.5 h
[8] = Metabolic stability in rat liver microsomes assessed as clearance by LC/MS-MS analysis; format: ADME, Microsome
[9] = Protein binding in human plasma; format: ADME, cell-free; settings: read-out: PPB (converted)
[10] = molecular target: Transient receptor potential cation channel subfamily M member 8 (Homo sapiens) (UniProt Q7Z2W7); experiment: Inhibition of human TRPM8 expressed in HEK293F cells assessed as inhibition of […]-induced calcium response up to 20 uM; format: cell-based
Transient receptor potential cation channel subfamily M member 8 (Homo sapiens), sequence (Q7Z2W7 whole entry, looked up): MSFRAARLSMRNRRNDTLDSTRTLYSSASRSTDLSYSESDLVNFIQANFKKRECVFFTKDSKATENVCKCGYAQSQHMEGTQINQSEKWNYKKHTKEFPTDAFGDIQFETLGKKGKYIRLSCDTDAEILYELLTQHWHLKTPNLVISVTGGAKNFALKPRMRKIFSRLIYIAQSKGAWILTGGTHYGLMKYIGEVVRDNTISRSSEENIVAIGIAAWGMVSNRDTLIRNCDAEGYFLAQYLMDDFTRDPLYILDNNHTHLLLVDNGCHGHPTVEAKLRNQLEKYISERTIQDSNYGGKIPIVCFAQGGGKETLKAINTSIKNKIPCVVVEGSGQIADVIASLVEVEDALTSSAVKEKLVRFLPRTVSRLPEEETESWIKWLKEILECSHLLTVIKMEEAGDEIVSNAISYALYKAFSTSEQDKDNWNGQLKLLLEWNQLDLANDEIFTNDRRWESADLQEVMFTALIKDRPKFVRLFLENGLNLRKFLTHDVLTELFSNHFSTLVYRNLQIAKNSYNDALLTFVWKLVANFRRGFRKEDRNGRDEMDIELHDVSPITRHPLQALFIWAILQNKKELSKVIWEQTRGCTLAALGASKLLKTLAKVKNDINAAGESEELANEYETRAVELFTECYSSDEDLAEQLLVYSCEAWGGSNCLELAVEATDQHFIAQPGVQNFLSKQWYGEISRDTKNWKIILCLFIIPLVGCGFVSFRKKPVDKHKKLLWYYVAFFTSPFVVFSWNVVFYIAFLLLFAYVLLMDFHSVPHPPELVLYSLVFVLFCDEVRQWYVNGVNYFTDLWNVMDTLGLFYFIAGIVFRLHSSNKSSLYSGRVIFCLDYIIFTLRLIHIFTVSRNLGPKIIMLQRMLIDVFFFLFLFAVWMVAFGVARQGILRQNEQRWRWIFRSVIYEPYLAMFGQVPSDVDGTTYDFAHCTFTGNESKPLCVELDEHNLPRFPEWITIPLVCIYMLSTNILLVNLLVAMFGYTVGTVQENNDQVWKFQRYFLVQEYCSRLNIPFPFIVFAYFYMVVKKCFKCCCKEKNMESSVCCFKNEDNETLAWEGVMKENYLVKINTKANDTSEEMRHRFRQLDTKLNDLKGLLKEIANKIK

[11] = Volume of distribution at steady stare in rat at 1 mg/kg; format: ADME, organism-based; settings: in vivo, read-out: Vdss
[12] = Metabolic stability in rat hepatocytes assessed as clearance; format: ADME, cell-based, Hepatocyte
[13] = Apparent permeability across apical to basolateral side in MDCK cells; format: ADME, cell-based, Canis lupus familiaris; settings: dog, read-out: permeability
[14] = molecular target: Nav1.5 (Homo sapiens, UniProt Q14524); experiment: Inhibition of Nav1.5 (unknown origin) at 10 uM
[15] = molecular target: T1, Short transient receptor potential channel 6 (Homo sapiens) (UniProt Q9Y210); experiment: Inhibition of human TRPC6 expressed in HEK293F cells assessed as inhibition of carbachol-induced calcium response up to 20 uM; format: cell-based
T1 sequence (whole entry): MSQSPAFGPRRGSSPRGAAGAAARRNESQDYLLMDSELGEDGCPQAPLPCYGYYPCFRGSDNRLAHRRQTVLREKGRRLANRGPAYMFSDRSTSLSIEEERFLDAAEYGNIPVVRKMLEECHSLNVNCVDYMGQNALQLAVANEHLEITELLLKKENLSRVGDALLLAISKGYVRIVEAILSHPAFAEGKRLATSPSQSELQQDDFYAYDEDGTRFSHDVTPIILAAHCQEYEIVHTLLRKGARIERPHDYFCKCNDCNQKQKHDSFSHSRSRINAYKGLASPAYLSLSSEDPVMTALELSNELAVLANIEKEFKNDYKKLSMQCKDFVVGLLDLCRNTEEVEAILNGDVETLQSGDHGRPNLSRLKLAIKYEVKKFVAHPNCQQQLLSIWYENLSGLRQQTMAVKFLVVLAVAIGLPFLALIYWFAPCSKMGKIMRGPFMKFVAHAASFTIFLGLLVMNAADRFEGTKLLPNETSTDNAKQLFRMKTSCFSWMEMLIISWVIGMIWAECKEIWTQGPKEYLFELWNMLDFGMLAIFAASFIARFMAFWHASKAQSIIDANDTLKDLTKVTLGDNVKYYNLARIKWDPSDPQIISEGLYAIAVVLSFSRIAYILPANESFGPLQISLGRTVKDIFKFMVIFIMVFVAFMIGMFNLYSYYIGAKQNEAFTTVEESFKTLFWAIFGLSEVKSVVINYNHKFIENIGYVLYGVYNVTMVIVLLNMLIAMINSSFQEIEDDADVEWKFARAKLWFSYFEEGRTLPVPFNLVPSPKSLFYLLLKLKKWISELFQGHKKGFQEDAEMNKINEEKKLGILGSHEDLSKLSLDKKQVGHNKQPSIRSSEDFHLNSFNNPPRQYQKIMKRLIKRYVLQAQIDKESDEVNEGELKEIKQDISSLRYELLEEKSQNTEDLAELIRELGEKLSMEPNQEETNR

[16] = Oral bioavailability in rat at 1 mg/kg; format: ADME, organism-based; settings: in vivo
[17] = Half life in rat at 1 mg/kg; format: ADME, organism-based; settings: in vivo
[18] = Lipophilicity, logD of compound; format: physicochemical; settings: octanol/water
[19] = organism: Rattus norvegicus; experiment: Antinociceptive activity against AITC-induced rat pain model assessed as nocifensive behaviour by measuring unbound concentration; format: functional, organism-based
[20] = molecular target: Cytochrome P450 3A4 (Homo sapiens, UniProt P08684); experiment: Inhibition of CYP3A4 (unknown origin); format: ADME
[21] = molecular target: Transient receptor potential cation channel subfamily A member 1 (Rattus norvegicus) (UniProt Q6RI86); experiment: In vivo antagonist activity at TRPA1 in AITC-induced rat pain model assessed as nocifensive behaviour at 93.41 ratio of free plasma concentration to IC50 for rat […]; format: functional, organism-based; settings: concentration not given here
[22] = Inhibition of guinea pig TRPA1; parameters: species or system Cavia porcellus
[23] = Unbound Volume of distribution at steady state in rat at 1 mg/kg; format: ADME, organism-based; settings: in vivo
[24] = molecular target: Cytochrome P450 2D6 (Homo sapiens, UniProt P10635); experiment: Inhibition of CYP2D6 (unknown origin); format: ADME
Cytochrome P450 2D6, sequence (P10635 whole entry): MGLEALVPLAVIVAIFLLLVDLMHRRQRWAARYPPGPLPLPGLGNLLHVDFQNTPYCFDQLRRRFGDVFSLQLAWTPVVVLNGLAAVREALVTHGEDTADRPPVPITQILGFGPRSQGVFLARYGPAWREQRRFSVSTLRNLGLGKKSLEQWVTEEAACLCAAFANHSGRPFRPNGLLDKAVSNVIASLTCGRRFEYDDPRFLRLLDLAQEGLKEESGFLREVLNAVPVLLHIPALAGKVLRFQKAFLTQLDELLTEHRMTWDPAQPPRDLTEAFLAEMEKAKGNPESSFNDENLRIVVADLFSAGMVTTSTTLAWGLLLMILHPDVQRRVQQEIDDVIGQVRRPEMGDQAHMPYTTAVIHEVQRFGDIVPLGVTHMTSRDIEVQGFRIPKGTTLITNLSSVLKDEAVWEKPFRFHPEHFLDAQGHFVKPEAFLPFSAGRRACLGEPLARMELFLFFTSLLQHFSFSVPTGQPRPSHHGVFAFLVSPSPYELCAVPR

[25] = molecular target: Transient receptor potential cation channel subfamily A member 1 (Rattus norvegicus) (UniProt Q6RI86); experiment: In vivo antagonist activity at TRPA1 in AITC-induced rat pain model assessed as nocifensive behaviour at 2.18 ratio of free plasma concentration to IC50 for rat […]; format: functional, organism-based; settings: concentration not given here
[26] = molecular target: Cav1.2 (Homo sapiens, UniProt Q13936); experiment: Inhibition of Cav1.2 (unknown origin) at 10 uM
Cav1.2, sequence (Q13936 whole entry): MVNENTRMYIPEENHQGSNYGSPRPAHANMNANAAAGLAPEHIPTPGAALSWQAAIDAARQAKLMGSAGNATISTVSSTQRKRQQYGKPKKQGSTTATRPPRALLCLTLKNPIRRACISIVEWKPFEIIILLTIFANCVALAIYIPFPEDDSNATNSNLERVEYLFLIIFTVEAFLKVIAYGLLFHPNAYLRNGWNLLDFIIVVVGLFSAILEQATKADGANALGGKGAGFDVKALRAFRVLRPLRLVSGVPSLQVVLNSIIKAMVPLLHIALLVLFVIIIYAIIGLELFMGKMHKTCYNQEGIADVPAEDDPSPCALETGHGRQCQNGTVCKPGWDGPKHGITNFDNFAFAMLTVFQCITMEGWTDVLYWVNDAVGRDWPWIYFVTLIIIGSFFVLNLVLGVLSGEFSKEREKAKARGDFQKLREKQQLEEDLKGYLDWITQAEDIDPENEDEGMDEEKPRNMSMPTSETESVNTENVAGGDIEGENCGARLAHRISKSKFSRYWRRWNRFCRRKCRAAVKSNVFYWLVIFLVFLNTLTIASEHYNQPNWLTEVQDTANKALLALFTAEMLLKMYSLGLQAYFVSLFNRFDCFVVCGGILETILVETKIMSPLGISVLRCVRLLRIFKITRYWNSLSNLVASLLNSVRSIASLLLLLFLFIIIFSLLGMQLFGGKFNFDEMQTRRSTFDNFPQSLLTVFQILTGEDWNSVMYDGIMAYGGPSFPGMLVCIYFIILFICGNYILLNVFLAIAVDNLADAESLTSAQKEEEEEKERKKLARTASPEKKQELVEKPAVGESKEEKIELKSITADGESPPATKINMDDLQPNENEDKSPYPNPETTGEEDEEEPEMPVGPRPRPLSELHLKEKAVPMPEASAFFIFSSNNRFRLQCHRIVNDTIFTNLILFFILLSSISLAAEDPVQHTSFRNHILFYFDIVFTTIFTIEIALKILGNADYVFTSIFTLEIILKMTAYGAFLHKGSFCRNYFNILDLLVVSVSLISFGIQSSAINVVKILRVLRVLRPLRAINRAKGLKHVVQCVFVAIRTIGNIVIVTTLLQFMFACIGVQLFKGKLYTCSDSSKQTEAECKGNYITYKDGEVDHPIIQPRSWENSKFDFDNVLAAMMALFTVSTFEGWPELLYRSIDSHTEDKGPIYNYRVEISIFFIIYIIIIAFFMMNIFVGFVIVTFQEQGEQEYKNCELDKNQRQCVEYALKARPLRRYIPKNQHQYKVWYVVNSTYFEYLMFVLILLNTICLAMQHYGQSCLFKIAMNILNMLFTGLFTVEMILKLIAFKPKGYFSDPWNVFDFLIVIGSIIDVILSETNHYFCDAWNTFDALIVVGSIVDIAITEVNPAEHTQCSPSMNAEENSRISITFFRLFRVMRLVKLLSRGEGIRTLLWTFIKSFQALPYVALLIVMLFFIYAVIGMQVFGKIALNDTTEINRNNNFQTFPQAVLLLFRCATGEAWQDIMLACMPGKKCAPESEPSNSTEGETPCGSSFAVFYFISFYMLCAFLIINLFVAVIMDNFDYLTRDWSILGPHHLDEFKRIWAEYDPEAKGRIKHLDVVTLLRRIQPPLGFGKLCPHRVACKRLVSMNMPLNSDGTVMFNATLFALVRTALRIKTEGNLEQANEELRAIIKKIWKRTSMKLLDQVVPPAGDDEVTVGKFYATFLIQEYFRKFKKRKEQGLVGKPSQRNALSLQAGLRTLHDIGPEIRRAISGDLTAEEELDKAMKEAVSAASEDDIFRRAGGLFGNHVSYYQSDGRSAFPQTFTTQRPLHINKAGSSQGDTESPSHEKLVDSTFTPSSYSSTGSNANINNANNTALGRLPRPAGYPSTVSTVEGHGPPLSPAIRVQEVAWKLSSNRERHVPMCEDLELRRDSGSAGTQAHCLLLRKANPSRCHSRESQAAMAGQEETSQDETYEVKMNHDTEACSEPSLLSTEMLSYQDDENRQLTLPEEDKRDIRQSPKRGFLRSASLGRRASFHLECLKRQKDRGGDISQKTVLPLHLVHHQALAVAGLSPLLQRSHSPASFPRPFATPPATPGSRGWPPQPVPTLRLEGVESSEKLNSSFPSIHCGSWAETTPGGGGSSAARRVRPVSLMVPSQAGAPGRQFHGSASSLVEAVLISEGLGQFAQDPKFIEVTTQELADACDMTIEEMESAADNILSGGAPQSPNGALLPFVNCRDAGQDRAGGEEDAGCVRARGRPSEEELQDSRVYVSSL

[27] = molecular target: Transient receptor potential cation channel subfamily A member 1 (Rattus norvegicus) (UniProt Q6RI86); experiment: In vivo antagonist activity at TRPA1 in AITC-induced rat pain model assessed as nocifensive behaviour at 7.95 ratio of free plasma concentration to IC50 for rat […]; format: functional, organism-based; settings: concentration not given here
[28] = Metabolic stability in human liver microsomes assessed as clearance by LC/MS-MS analysis; format: ADME, Microsome
[29] = Kinetic solubility of the compound; format: physicochemical; settings: read-out: Kinetic_solubility

Question: For `Cn1cnc2ncn(Cc3nc([C@@H]4CO[C@@H](c5ccc(Cl)cc5)C4)no3)c(=O)c21`, which Activity [1] is on record?
Answer: Dose-dependent effect

Question: What about the IC50 [2] of the same compound?
Answer: 0.9 nM

Question: What about the inhibition at 10 µM [3] of the same compound?
Answer: < 15%

Question: What about the fraction unbound [4] of the same compound?
Answer: 0.246

Question: What about the inhibition [5] of the same compound?
Answer: 80%

Question: What about the clearance [6] of the same compound?
Answer: 17 mL/min/kg

Question: And the IC50 [7]?
Answer: 7.4 nM

Question: What about the CLhep predicted [8] of the same compound?
Answer: 14 mL/min/kg

Question: And the fraction unbound [9]?
Answer: 0.171

Question: What about the inhibition [10] of the same compound?
Answer: inactive

Question: And the Vd [11]?
Answer: 2.1 L/kg

Question: And the CLhep predicted [12]?
Answer: 29 mL/min/kg

Question: And the Papp A→B [13]?
Answer: 16 ×10⁻⁶ cm/s

Question: What about the inhibition at 10 µM [14] of the same compound?
Answer: < 15%

Question: What about the inhibition [15] of the same compound?
Answer: inactive

Question: What about the bioavailability [16] of the same compound?
Answer: 90%

Question: What about the half-life [17] of the same compound?
Answer: 1.6 h

Question: And the logD [18]?
Answer: 1.8

Question: What about the EC50 [19] of the same compound?
Answer: 53 nM

Question: What about the IC50 [20] of the same compound?
Answer: > 10000 nM

Question: What about the inhibition [21] of the same compound?
Answer: 100%

Question: What about the IC50 [22] of the same compound?
Answer: 7.1 nM

Question: And the Vduss [23]?
Answer: 8.54 L/kg

Question: What about the IC50 [24] of the same compound?
Answer: > 10000 nM

Question: And the inhibition [25]?
Answer: 30%

Question: And the inhibition at 10 µM [26]?
Answer: < 15%

Question: And the inhibition [27]?
Answer: 53%

Question: What about the CLhep predicted [28] of the same compound?
Answer: 5 mL/min/kg

Question: And the solubility kinetic [29]?
Answer: 43 µM (≈ 17.8 µg/mL)
